According to patent US20230218577A1, “USE OF HEAT SHOCK PROTEIN INHIBITORS FOR THE TREATMENT OF NEURODEVELOPMENTAL DISORDERS” (The Children's Medical Center Corporation, priority 2020, published 2023):

Test system: cilia (ACIII) in Tsc2-sh hippocampal neurons
Assay: cilia^HCA (GFP+ ACIII+ neurons) in Tsc2-sh neurons
Format: cell-based, rat
Settings: for ciliation, acute effect: 24 hrs at DIV20, concentrations that inhibited mTORC1 (8.5 μM 17-AGG, 9 μM GA, 5.5 μM rapamycin); for rescue of cilia at later ages in culture: four-day treatment between DIV16-20, endpoint DIV20
Excerpt: To investigate how mTORC1 dysregulation due to neuronal TSC loss affected ciliation, High Content image-based Assays (HCAs) were developed for unbiased quantification of cilia and mTORC1 activity (hereafter cilia^HCA and mTORC1^HCA) in primary neurons. As an in vitro model of TSC, rat hippocampal neurons transduced with lentiviral vectors (LV) expressing a short hairpin RNA (shRNA) were used directed against either the Tsc2 (Tsc2-sh) or the luciferase gene as a control (ctrl-sh) tagged with GFP. LV-mediated Tsc2 knockdown recapitulates several in vivo manifestations observed in mouse models of TSC (Di Nardo et al., Tuberous sclerosis complex activity is required to control neuronal stress responses in an mTOR-dependent manner; J Neurosci 29, 5926-5937 (2009); Di Nardo et al., Neuronal Tsc1/2 complex controls autophagy through AMPK-dependent regulation of ULK1; Hum Mol Genet 23, 3865-3874 (2014); Ebrahimi-Fakhari et al., Impaired Mitochondrial Dynamics and Mitophagy in Neuronal Models of Tuberous Sclerosis Complex; Cell Rep 17, 1053-1070 (2016); Ercan et al., Neuronal CTGF/CCN2 negatively regulates myelination in a mouse model of tuberous sclerosis complex; The Journal of experimental medicine 214, 681-697 (2017); Nie et al., The Stress-Induced Atf3-Gelsolin Cascade Underlies Dendritic Spine Deficits in Neuronal Models of Tuberous Sclerosis Complex; J Neurosci 35, 10762-10772 (2015); Nie et al., Tsc2-Rheb signaling regulates EphA-mediated axon guidance. Nat Neurosci 13, 163-172 (2010)). In vitro phenotypes include robust TSC2 protein downregulation and mTORC1 activation as shown by the time course of increased phosphorylation of ribosomal protein S6 at serine 240/244 (pS6) (FIGS. 8A-B). Both the cilia^HCA and mTORC1^HCA were optimized as imaged-based assays, where cilia and mTORC1 activity was monitored by immunofluorescent staining of ACIII to identify cilia and pS6 as a proxy of mTORC1 activation (FIGS. 8C-F). Neurons were transduced in culture at day in vitro (DIV) 1, and cilia and mTORC1 activity were assessed in a time course experiment at DIV2, 5, 7, 13, and 20 (FIG. 2A). LV-infected neurons with cilia or with phosphorylated S6 (GFP^+ ACIII^+ and GFP^+pS6^+ respectively) were identified by automated algorithms to detect subcellular structures and their co-localization specifically optimized for each assay. In control neurons, cilia development was observed between DIV2-5, which remained stable between DIV7 and DIV20 (FIGS. 2B, D). […] Reduced ciliation was validated by manual imaging and quantification of LV-infected neurons co-labeled with ACIII/centrin (FIGS. 8G-H). No changes in size or ACIII intensity were detected in the remaining cilia of the Tsc2-sh neurons (FIGS. 8I-J).
Rat hippocampal neurons were plated at a density of 20,000/well in 96-well plates (Greiner #655090) coated with Poly-D-Lysine (PDL) at 20 μg/ml. Neurons were transduced with lentivirus and processed for immunofluorescent staining at endpoint assay by fixation with 4% PFA followed by permeabilization in ice cold 100% Methanol. Neurons were then washed 3 times in PBS/0.05% Tween (PBT) containing 50 mM glycine and blocked in 2% bovine serum albumin (Sigma) in PBT (PBT/Block) at RT. For consistent and robust identification of the LV-infected neurons, cultures of both the cilia^HCA and mTORC1^HCA were stained with GFP antibody and co-labeled with ACIII or pS6 for the identification of respectively cilia and mTORC1 activity. Primary antibodies were incubated in PBT/Block overnight. The following day, neurons were washed in PBT and incubated with secondary antibodies followed by Hoechst staining. After washing with PBT, neurons were kept in PBS buffer. Aside from primary and secondary antibody administration, all the washing for immunofluorescent staining was done using the Agilent bravo automated liquid handler. […]

[1] = four days (DIV9-13), any dose tested

| Compound | ciliation [1] | ciliation, acute effect | rescue of cilia at later ages in culture | further results |
| --- | --- | --- | --- | --- |
| COc1cccc(-c2cc(F)ccc2[C@H]2Cc3nc(N)nc(C)c3C(=O)N2)n1 [NPV-HSP-990, (R)-2-amino-7-((R)-4-fluoro-2-(6-methoxypyridin-2-yl)phenyl)-4-methyl-7,8-dihydropyrido[4,3-d]pyrimidin-5(6H)-one] | not observed |  |  |  |
| C=CCNC1=C2C[C@@H](C)C[C@H](OC)[C@H](O)[C@@H](C)/C=C(\C)[C@H](OC(N)=O)[C@@H](OC)C=C/C=C(\C)C(=O)NC(=CC1=O)C2=O [17-AGG, 3 S,5S,6R,7S,8E,10R,11S,12E,14E)-21-(allylamino)-6-hydroxy-5,11-dimethoxy-3,7,9,15-tetramethyl-16,20,22-trioxo-17-azabicyclo[16.3.1]docosa-8,12,14,18,21-pentaen-10-yl] carbamate] |  | Neither of the Hsp90 inhibitors nor rapamycin rescued ciliation | Neither rapamycin nor a four-day 17-AGG treatment regimen was able to rescue the cilia | EC50 (Rattus norvegicus, Hippocampal neuron, treatment between DIV9-13, read-out: EC50^cilia (cilia rescue)): 15 nM |
| CO[C@H]1C[C@@H]2CC[C@@H](C)[C@@](O)(O2)C(=O)C(=O)N2CCCC[C@H]2C(=O)O[C@H]([C@H](C)C[C@@H]2CC[C@@H](O)[C@H](OC)C2)CC(=O)[C@H](C)/C=C(\C)[C@@H](O)[C@@H](OC)C(=O)[C@H](C)C[C@H](C)/C=C/C=C/C=C/1C [rapamycin] |  | Neither of the Hsp90 inhibitors nor rapamycin rescued ciliation | Neither rapamycin nor a four-day 17-AGG treatment regimen was able to rescue the cilia | ciliation (rapamycin 20 nM acute (1 day) treatment): no effect; ciliation (rapamycin 20 nM for eight days between DIV5-13): significant increase; ciliation (rapamycin 20 nM for four days between DIV9-13): significant increase; ciliation (rapamycin 20 nM, later ages (DIV20) in culture): no effect |
| CN(C)c1cc2c(cc1Sc1nc3c(N)nccc3n1CCNCC(C)(C)C)OCO2 [CUDC-305, 4-amino-2-[[6-(dimethylamino)-1,3-benzodioxol-5-yl]thio]-N-(2,2-dimethylpropyl)-1H-imidazo[4,5-c]pyridine-1-ethanamine] | No increase |  |  |  |
